Source: PubChem BioAssay AID248 (DTP/NCI, 2004)
Inconclusive results and toxic doses are left out.

Test system: L1210 leukemia ip in BDF1 mice, survival T/C
Assay: NCI In Vivo Anticancer Drug Screen. Data for tumor model L1210 Leukemia (intraperitoneal) in B6D2F1 (BDF1) mice
Details: endpoint: mean survival time, higher = longer survival
In short: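 Tumor was transplanted into mice, which were then dosed with test compound or vehicle alone. Survival was recorded for each group, and the treated figure was expressed relative to the control figure.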

[1] = dose: 50.0 mg/kg/injection, schedule: Q01DX001 (ip), vehicle: saline
[2] = dose: 100.0 mg/kg/injection, schedule: Q01DX001 (ip), vehicle: saline
[3] = dose: 200.0 mg/kg/injection, schedule: Q01DX001 (ip), vehicle: saline

Q: What does the source list for `COc1cc2c(c(OC)c1OC)-c1ccc(OC)c(=O)cc1[C@@H](NC(=O)c1ccccc1)CC2`?
A: T/C (dose: 0.13 mg/kg/injection, schedule: Q01DX Z (ip), vehicle: methylcellulose (MC)): 87 % of control; T/C (dose: 0.2 mg/kg/injection, schedule: Q01DX Z (ip), vehicle: methylcellulose (MC)): 120 % of control; T/C (dose: 0.29 mg/kg/injection, schedule: Q01DX Z (ip), vehicle: methylcellulose (MC)): 122 % of control; T/C (dose: 0.44 mg/kg/injection, schedule: Q01DX Z (ip), vehicle: methylcellulose (MC)): 95 % of control; T/C (dose: 0.75 mg/kg/injection, schedule: Q01DX Z (ip), vehicle: methylcellulose (MC)): 101 % of control; T/C (dose: 0.8 mg/kg/injection, schedule: Q01DX Z (ip), vehicle: methylcellulose (MC)): 103 % of control; T/C (dose: 1.2 mg/kg/injection, schedule: Q01DX Z (ip), vehicle: methylcellulose (MC)): 106 % of control; T/C (dose: 1.6 mg/kg/injection, schedule: Q01DX015 (ip), vehicle: carboxymethylcellulose (CMC)): 108 % of control; T/C (dose: 1.8 mg/kg/injection, schedule: Q01DX Z (ip), vehicle: methylcellulose (MC)): 103 % of control; T/C (dose: 2.5 mg/kg/injection, schedule: Q01DX015 (ip), vehicle: carboxymethylcellulose (CMC)): 108 % of control; T/C (dose: 2.7 mg/kg/injection, schedule: Q01DX Z (ip), vehicle: methylcellulose (MC)): 105 % of control; T/C (dose: 3.7 mg/kg/injection, schedule: Q01DX015 (ip), vehicle: carboxymethylcellulose (CMC)): 123 % of control; T/C (dose: 4.0 mg/kg/injection, schedule: Q01DX Z (ip), vehicle: methylcellulose (MC)): 114 % of control; T/C (dose: 5.0 mg/kg/injection, schedule: Q01DX001 (ip), vehicle: carboxymethylcellulose (CMC)): 104 % of control; T/C (dose: 5.6 mg/kg/injection, schedule: Q01DX015 (ip), vehicle: carboxymethylcellulose (CMC)): 108 % of control; T/C (dose: 8.4 mg/kg/injection, schedule: Q01DX015 (ip), vehicle: carboxymethylcellulose (CMC)): 86 % of control; T/C (dose: 10.0 mg/kg/injection, schedule: Q01DX001 (ip), vehicle: carboxymethylcellulose (CMC)): 120 % of control; T/C (dose: 20.0 mg/kg/injection, schedule: Q01DX001 (ip), vehicle: carboxymethylcellulose (CMC)): 118 % of control; T/C (dose: 27.0 mg/kg/injection, schedule: Q01DX001 (ip), vehicle: carboxymethylcellulose (CMC)): 120 % of control

Q: With `N#Cc1nc2c(nc1N)CCCCCCCCCC2` as the molecule, how does the T/C (dose: 100.0 mg/kg/injection, schedule: Q01DX001 (ip), vehicle: Klucel (hydroxypropylcellulose) (HPC)) read?
A: Its T/C is 96 % of control.

Q: What about the T/C (dose: 400.0 mg/kg/injection, schedule: Q01DX001 (ip), vehicle: Klucel (hydroxypropylcellulose) (HPC)) of the same molecule?
A: The T/C was 92 % of control.

Q: With `C[N+](C)(C)Cc1ccccc1C[N+](C)(C)C` as the molecule, how does the T/C [1] read?
A: Its T/C is 113 % of control.

Q: What about the T/C [2] of the same molecule?
A: Its T/C is 101 % of control.

Q: And the T/C [3]?
A: The T/C was 97 % of control.

Q: `COC(OC)C1=CC(=O)NC(NC(=O)C(Cl)Cl)N1` (stereo not given) was tested. Which T/C [1] did it give?
A: The T/C was 92 % of control.

Q: And the T/C [2]?
A: Its T/C is 98 % of control.

Q: And the T/C [3]?
A: Its T/C is 95 % of control.

Q: What does the source list for `CCOC(=O)c1cc2c(-c3ccccc3)c(-c3ccccc3)c(-c3ccccc3)c(-c3ccccc3)n2n1`?
A: T/C [2]: 93 % of control; T/C (dose: 400.0 mg/kg/injection, schedule: Q01DX001 (ip), vehicle: saline): 93 % of control

Q: How did the T/C (dose: 0.39 mg/kg/injection, schedule: Q01DX009 (ip), vehicle: saline) turn out when `CC1CC[N-]CC1.CC1CC[N-]CC1.CC1CC[N-]CC1.CC1CC[N-]CC1.[Pt+4]` was run?
A: The T/C was 100 % of control.

Q: And the T/C (dose: 0.39 mg/kg/injection, schedule: Q04DX003 (ip), vehicle: saline)?
A: The T/C was 97 % of control.

Q: What about the T/C (dose: 0.78 mg/kg/injection, schedule: Q01DX009 (ip), vehicle: saline) of the same molecule?
A: Its T/C is 92 % of control.

Q: What about the T/C (dose: 0.78 mg/kg/injection, schedule: Q04DX003 (ip), vehicle: saline) of the same molecule?
A: Its T/C is 100 % of control.

Q: What about the T/C (dose: 1.56 mg/kg/injection, schedule: Q01DX009 (ip), vehicle: saline) of the same molecule?
A: Its T/C is 94 % of control.

Q: What about the T/C (dose: 1.56 mg/kg/injection, schedule: Q04DX003 (ip), vehicle: saline) of the same molecule?
A: Its T/C is 102 % of control.

Q: What about the T/C (dose: 3.12 mg/kg/injection, schedule: Q04DX003 (ip), vehicle: saline) of the same molecule?
A: Its T/C is 96 % of control.

Q: How did the T/C (dose: 6.25 mg/kg/injection, schedule: Q01DX001 (ip), vehicle: saline with Tween-80) turn out when `Fc1ccc(NC2(c3nnnn3C3CCCCC3)CCNCC2)cc1` was run?
A: The T/C was 102 % of control.

Q: What about the T/C (dose: 12.5 mg/kg/injection, schedule: Q01DX001 (ip), vehicle: saline with Tween-80) of the same molecule?
A: The T/C was 100 % of control.

Q: And the T/C (dose: 25.0 mg/kg/injection, schedule: Q01DX001 (ip), vehicle: saline with Tween-80)?
A: Its T/C is 98 % of control.

Q: Which T/C (dose: 1.6 mg/kg/injection, schedule: Q01DX009 (ip), vehicle: saline) does the source give for `COc1cccc2c1C(=O)c1c(O)c3c(c(O)c1C2=O)C[C@@](O)(C(=O)COC(=O)c1cccnc1)C[C@@H]3OC1CC(N)C(O)C(C)O1` (stereo not given in full) here?
A: The T/C was 153 % of control.

Q: What about the T/C (dose: 2.4 mg/kg/injection, schedule: Q01DX009 (ip), vehicle: saline) of the same molecule?
A: Its T/C is 153 % of control.

Q: Which results are given for `C[N+](C)(C)CC(O)CC#N` (stereo not given)?
A: T/C (dose: 12.5 mg/kg/injection, schedule: Q01DX009 (ip), vehicle: Klucel (hydroxypropylcellulose) (HPC)): 98 % of control; T/C (dose: 25.0 mg/kg/injection, schedule: Q01DX009 (ip), vehicle: Klucel (hydroxypropylcellulose) (HPC)): 96 % of control; T/C (dose: 50.0 mg/kg/injection, schedule: Q01DX009 (ip), vehicle: Klucel (hydroxypropylcellulose) (HPC)): 93 % of control

Q: With `CCCCC(C)(O)CCC` (stereo not given) as the molecule, how does the T/C (dose: 50.0 mg/kg/injection, schedule: Q01DX001 (ip), vehicle: carboxymethylcellulose (CMC)) read?
A: The T/C was 104 % of control.

Q: What about the T/C (dose: 100.0 mg/kg/injection, schedule: Q01DX001 (ip), vehicle: carboxymethylcellulose (CMC)) of the same molecule?
A: Its T/C is 101 % of control.

Q: And the T/C (dose: 200.0 mg/kg/injection, schedule: Q01DX001 (ip), vehicle: carboxymethylcellulose (CMC))?
A: Its T/C is 98 % of control.

Q: And the T/C (dose: 400.0 mg/kg/injection, schedule: Q01DX001 (ip), vehicle: carboxymethylcellulose (CMC))?
A: The T/C was 89 % of control.

Q: `CCN1C(=O)/C(=C/c2ccncc2)SC1=S` was tested. Which T/C (dose: 50.0 mg/kg/injection, schedule: Q01DX Z (ip), vehicle: carboxymethylcellulose (CMC)) did it give?
A: The T/C was 96 % of control.

Q: What about the T/C (dose: 100.0 mg/kg/injection, schedule: Q01DX Z (ip), vehicle: carboxymethylcellulose (CMC)) of the same molecule?
A: Its T/C is 92 % of control.

Q: And the T/C (dose: 200.0 mg/kg/injection, schedule: Q01DX Z (ip), vehicle: carboxymethylcellulose (CMC))?
A: The T/C was 94 % of control.

Q: What about the T/C (dose: 400.0 mg/kg/injection, schedule: Q01DX Z (ip), vehicle: carboxymethylcellulose (CMC)) of the same molecule?
A: The T/C was 91 % of control.

Q: Which T/C (dose: 100.0 mg/kg/injection, schedule: Q04DX003 (ip), vehicle: other) does the source give for `CCCCCCCCCCCCCCCCCCCCCC1CCCC1` here?
A: Its T/C is 96 % of control.

Q: And the T/C (dose: 200.0 mg/kg/injection, schedule: Q04DX003 (ip), vehicle: other)?
A: Its T/C is 94 % of control.

Q: What about the T/C (dose: 400.0 mg/kg/injection, schedule: Q04DX003 (ip), vehicle: other) of the same molecule?
A: Its T/C is 96 % of control.
